Measurements as given in publication PMC6439253, “Complete NMR chemical shift assignments of odorant binding protein 22 from the yellow fever mosquito, Aedes aegypti, bound to arachidonic acid” (Biomolecular Nmr Assignments, 2019).
pKd: −log10 of the molar value.

Target: T1, AeOBP22 (odorant binding protein 22) (Aedes aegypti, UniProt Q1HRL7)
T1 construct: mature form, residues 17-138, signal peptide (1-16) removed, added N-terminal initiator Met, no tags (123 residues); monomer; 13C/15N labelled for NMR
T1 sequence (Q1HRL7 17-138): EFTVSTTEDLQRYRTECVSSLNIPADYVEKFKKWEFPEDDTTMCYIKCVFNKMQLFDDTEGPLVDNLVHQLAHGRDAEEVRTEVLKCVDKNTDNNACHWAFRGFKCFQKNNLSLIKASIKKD
Experiment: fluorescence-based binding assay (preliminary); binding confirmed by NMR

SMILES: CCCCC/C=C\C/C=C\C/C=C\C/C=C\CCCC(=O)O [arachidonic acid]
- pKd: ~6.64
